{"source": "patent US12122763B2", "about": "“Substituted piperidines for androgen receptor degradation” (UBIX THERAPEUTICS, INC., priority 2020, dated 2024)", "biological_target": "T1, Androgen Receptor (AR) protein (Homo sapiens, UniProt P10275, T878A)", "T1 construct": "endogenous in cells; host or cells: LNCaP", "T1 sequence (P10275 whole entry T878A)": "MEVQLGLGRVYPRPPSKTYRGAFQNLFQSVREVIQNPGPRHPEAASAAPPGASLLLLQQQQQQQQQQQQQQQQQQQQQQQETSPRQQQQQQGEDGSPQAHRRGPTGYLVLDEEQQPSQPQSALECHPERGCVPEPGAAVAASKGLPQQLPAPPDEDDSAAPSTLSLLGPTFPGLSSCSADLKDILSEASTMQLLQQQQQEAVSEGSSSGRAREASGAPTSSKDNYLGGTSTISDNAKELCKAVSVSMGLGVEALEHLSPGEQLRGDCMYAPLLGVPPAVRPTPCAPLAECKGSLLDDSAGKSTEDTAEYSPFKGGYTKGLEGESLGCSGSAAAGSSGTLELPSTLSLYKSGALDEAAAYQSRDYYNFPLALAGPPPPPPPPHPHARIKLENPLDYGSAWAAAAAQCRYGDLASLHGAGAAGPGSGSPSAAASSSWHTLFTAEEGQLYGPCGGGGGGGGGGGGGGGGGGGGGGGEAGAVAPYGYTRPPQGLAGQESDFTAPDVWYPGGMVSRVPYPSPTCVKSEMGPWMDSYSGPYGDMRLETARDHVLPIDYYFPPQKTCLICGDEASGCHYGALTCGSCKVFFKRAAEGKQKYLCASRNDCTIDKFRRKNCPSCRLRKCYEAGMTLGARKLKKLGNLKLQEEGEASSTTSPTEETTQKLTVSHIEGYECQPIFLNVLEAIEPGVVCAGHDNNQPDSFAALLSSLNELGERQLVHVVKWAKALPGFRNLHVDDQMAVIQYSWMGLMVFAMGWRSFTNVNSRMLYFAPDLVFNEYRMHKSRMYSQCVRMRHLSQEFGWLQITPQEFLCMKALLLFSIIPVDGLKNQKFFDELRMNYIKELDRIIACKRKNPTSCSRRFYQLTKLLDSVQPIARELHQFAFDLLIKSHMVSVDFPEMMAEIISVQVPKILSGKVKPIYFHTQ", "T1 sequence (Q96SW2 whole entry partner)": "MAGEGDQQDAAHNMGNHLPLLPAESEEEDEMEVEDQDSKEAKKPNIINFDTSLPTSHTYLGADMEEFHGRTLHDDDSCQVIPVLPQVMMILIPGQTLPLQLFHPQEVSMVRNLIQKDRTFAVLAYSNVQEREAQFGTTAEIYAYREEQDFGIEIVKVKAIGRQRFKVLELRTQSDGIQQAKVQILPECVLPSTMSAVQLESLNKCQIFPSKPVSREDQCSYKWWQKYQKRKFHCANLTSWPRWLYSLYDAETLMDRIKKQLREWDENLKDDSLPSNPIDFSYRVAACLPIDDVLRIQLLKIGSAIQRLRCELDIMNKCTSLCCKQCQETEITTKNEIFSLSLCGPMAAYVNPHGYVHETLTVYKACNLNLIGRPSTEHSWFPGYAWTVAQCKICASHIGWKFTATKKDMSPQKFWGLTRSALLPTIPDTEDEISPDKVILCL", "experiment": "Androgen Receptor (AR) protein degradation assay in LNCaP cells, western blotting", "format": "cell-based", "conditions": "20 h; for inhibition at 0.01 µM: 0.01 μM compound; for inhibition at 0.1 µM: 0.1 μM compound; for inhibition at 1 µM: 1 μM compound", "summary_of_the_method": "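LNCaP prostate cancer cells were cultured 3 days, then treated with compound for 20 h. Lysates in 1% SDS buffer were normalised by BCA, and 8 μg protein was run on 4–12% Bis-Tris gels. AR was immunoblotted with chemiluminescence, using GAPDH/β-actin as loading controls.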", "data": [{"smiles": "N#Cc1ccc(N2CCC(C(=O)Nc3ccc(OCCC4CCN(CC5CCN(c6ccc7c(c6)C(=O)N(C6CCC(=O)NC6=O)C7=O)CC5)CC4)cn3)CC2)cc1C(F)(F)F", "note": "(stereo not drawn) [Example 175, 1-(4-cyano-3-(trifluoromethyl)phenyl)-N-(5-(2-(1-((1-(2-(2,6-dioxopiperidin-3-yl)-1,3-dioxoisoindolin-5-yl)piperidin-4-yl)methyl)piperidin-4-yl)ethoxy)pyridin-2-yl)piperidine-4-carboxamide]", "values": [{"measurement": "inhibition at 0.01 µM", "value": 70, "unit": "%"}, {"measurement": "inhibition at 0.1 µM", "value": 95, "unit": "%"}, {"measurement": "inhibition at 1 µM", "value": 97, "unit": "%"}]}, {"smiles": "N#Cc1ccc(N2CCC(C(=O)Nc3ccc(OCCN4CCN(CC(=O)Nc5cccc(NC6CCC(=O)NC6=O)c5)CC4)cn3)CC2)cc1C(F)(F)F", "note": "(stereo not drawn) [Example 176, 1-(4-cyano-3-(trifluoromethyl)phenyl)-N-(5-(2-(4-(2-((3-((2,6-dioxopiperidin-3-yl)amino)phenyl)amino)-2-oxoethyl)piperazin-1-yl)ethoxy)pyridin-2-yl)piperidine-4-carboxamide]", "values": [{"measurement": "inhibition at 0.01 µM", "value": -2, "unit": "%"}, {"measurement": "inhibition at 0.1 µM", "value": -22, "unit": "%"}, {"measurement": "inhibition at 1 µM", "value": 16, "unit": "%"}]}, {"smiles": "N#Cc1ccc(N2CCC(C(=O)Nc3ccc(N4CCC(CN5CCN(CC(=O)Nc6cccc(NC7CCC(=O)NC7=O)c6)CC5)CC4)cn3)CC2)cc1C(F)(F)F", "note": "(stereo not drawn) [Example 177, 1-(4-cyano-3-(trifluoromethyl)phenyl)-N-(5-(4-((4-(2-((3-((2,6-dioxopiperidin-3-yl)amino)phenyl)amino)-2-oxoethyl)piperazin-1-yl)methyl)piperidin-1-yl)pyridin-2-yl)piperidine-4-carboxamide]", "values": [{"measurement": "inhibition at 0.01 µM", "value": 14, "unit": "%"}, {"measurement": "inhibition at 0.1 µM", "value": 37, "unit": "%"}, {"measurement": "inhibition at 1 µM", "value": 35, "unit": "%"}]}, {"smiles": "N#Cc1ccc(N2CCC(C(=O)Nc3ccc(OCCN4CCC(Oc5ccc6c(c5)C(=O)N(C5CCC(=O)NC5=O)C6=O)CC4)cn3)CC2)cc1C(F)(F)F", "note": "(stereo not drawn) [Example 178, 1-(4-cyano-3-(trifluoromethyl)phenyl)-N-(5-(2-(4-((2-(2,6-dioxopiperidin-3-yl)-1,3-dioxoisoindolin-5-yl)oxy)piperidin-1-yl)ethoxy)pyridin-2-yl)piperidine-4-carboxamide]", "values": [{"measurement": "inhibition at 0.01 µM", "value": 23, "unit": "%"}, {"measurement": "inhibition at 0.1 µM", "value": 64, "unit": "%"}, {"measurement": "inhibition at 1 µM", "value": 87, "unit": "%"}]}, {"smiles": "CC1(CN2CCN(CC3CCN(c4ccc5c(c4)C(=O)N(C4CCC(=O)NC4=O)C5=O)CC3)CC2)CN(c2ccc(NC(=O)C3CCN(c4ccc(C#N)c(C(F)(F)F)c4)CC3)nc2)C1", "note": "(stereo not drawn) [Example 179, 1-(4-cyano-3-(trifluoromethyl)phenyl)-N-(5-(3-((4-((1-(2-(2,6-dioxopiperidin-3-yl)-1,3-dioxoisoindolin-5-yl)piperidin-4-yl)methyl)piperazin-1-yl)methyl)-3-methylazetidin-1-yl)pyridin-2-yl)piperidine-4-carboxamide]", "values": [{"measurement": "inhibition at 0.01 µM", "value": 73, "unit": "%"}, {"measurement": "inhibition at 0.1 µM", "value": 98, "unit": "%"}, {"measurement": "inhibition at 1 µM", "value": 97, "unit": "%"}]}, {"smiles": "CC1(CN2CCC(COc3ccc4c(c3)C(=O)N(C3CCC(=O)NC3=O)C4=O)CC2)CN(c2ccc(NC(=O)C3CCN(c4ccc(C#N)c(C(F)(F)F)c4)CC3)nc2)C1", "note": "(stereo not drawn) [Example 180, 1-(4-cyano-3-(trifluoromethyl)phenyl)-N-(5-(3-((4-(((2-(2,6-dioxopiperidin-3-yl)-1,3-dioxoisoindolin-5-yl)oxy)methyl)piperidin-1-yl)methyl)-3-methylazetidin-1-yl)pyridin-2-yl)piperidine-4-carboxamide]", "values": [{"measurement": "inhibition at 0.01 µM", "value": 36, "unit": "%"}, {"measurement": "inhibition at 0.1 µM", "value": 97, "unit": "%"}, {"measurement": "inhibition at 1 µM", "value": 98, "unit": "%"}]}, {"smiles": "N#Cc1ccc(N2CCC(C(=O)Nc3ccc(OCC4CCN(CC5CCN(c6cc7c(cc6F)C(=O)N(C6CCC(=O)NC6=O)C7=O)CC5)CC4)cn3)CC2)cc1C(F)(F)F", "note": "(stereo not drawn) [Example 181, 1-(4-cyano-3-(trifluoromethyl)phenyl)-N-(5-((1-((1-(2-(2,6-dioxopiperidin-3-yl)-6-fluoro-1,3-dioxoisoindolin-5-yl)piperidin-4-yl)methyl)piperidin-4-yl)methoxy)pyridin-2-yl)piperidine-4-carboxamide]", "values": [{"measurement": "inhibition at 0.01 µM", "value": 75, "unit": "%"}, {"measurement": "inhibition at 0.1 µM", "value": 93, "unit": "%"}, {"measurement": "inhibition at 1 µM", "value": 97, "unit": "%"}]}]}
